# Laboratory results reported in article PMC12208134, “Structure-activity relationships of 1,5-dihydro-2H-benzo[b][1,4]diazepine-2,4(3H)-diones as inhibitors of Trypanosoma cruzi” (RSC medicinal chemistry, 2025).
# Where “and” joins values, the source holds several entries; their conditions need not be identical. Identical values can stand only once.
# Tests used:
# [1] = tested on: intracellular T. cruzi amastigotes; assay: T. cruzi intracellular potency assay (high content imaging); assay type: cell-based, Trypanosoma cruzi; set-up: key to Max Effect (T. cruzi): % inhibition; 0% = DMSO control, 100% = 16 μM nifurtimox control; conditions: for Emax / EC50 / IC50: Trypanosoma cruzi; for Emax / EC50 / Hill slope (T. cruzi) / Max Effect (T. cruzi) / pEC50 (T. cruzi): individual replicate; for Emax: read-out: Max Effect (T. cruzi); for EC50: read-out: pEC50 (T. cruzi) (converted); for IC50: intracellular amastigotes in Vero cells, 96 h, mean of N ≥ 3, read-out: T. cruzi pIC50 (converted)
# Method: (§1) T. cruzi intracellular potency and rate-of-kill assay (high content imaging) ^1
# (§2) Silvio X10/7 T. cruzi trypomastigotes were incubated at 37°C 5% CO2 with 1.6×10^7 Vero cells overnight at MOI10 in MEM media supplemented with 10% foetal calf serum (FCS). Extracellular parasites were removed by aspirating cell culture supernatant, and washing Vero monolayer with 10 ml serum-free MEM three times. Vero cells were then harvested by trypsinization and dispensed at 2×10^3 per well (50 μl in MEM/ 1% FCS) into 384 well plates pre-stamped with compounds in DMSO using automated washer/ dispenser EL406 and liquid handling software (Biotek). Plates were then incubated at 37°C in 5% CO2 for 96 h. For rate-of-kill determination, plates were incubated for 24h, 48h, 72h and 96h.
# (§3) Plates were subsequently fixed with 4% formaldehyde for 20 min, permeabilised and stained with 5 μgml^-1 Hoechst 33342/ 0.1% Triton/ PBS Thimerosal 20 min. Automated imaging was performed by an Operetta high content imaging system using 20x objective (PerkinElmer). Images were analysed with an algorithm generated in Columbus (PerkinElmer) to segment Vero cell nuclei, Vero cell cytoplasm and parasite nuclei/ kinetoplasts, reporting number of amastigotes per Vero cell, percent infected Vero cells and total number of Vero cells. Compound potencies against T. cruzi parasites were calculated in IDBS Activitybase using percent infected Vero cells and Vero toxicity curves generated using number of host cells. All data was normalised to percent inhibition based on the raw data values for the 100% effect control (16 μM nifurtimox) and the 0% effect control (DMSO) on each plate at each time point. Curve fitting was carried out using a four-parameter equation as previously described. ^2 For rate-of-kill experiments the percent infected cells at each compound concentration was plotted against time.
# [2] = Mouse liver microsomal intrinsic clearance; assay type: in vitro ADME; conditions: mouse liver microsomes
# Tc-CYP51 = Tc-CYP51 (Trypanosoma cruzi, UniProt Q7Z1V1); assay: T. cruzi sterol 14α-demethylase (CYP51) enzyme assay; assay type: biochemical; conditions: for Tc CYP51 Hill / Emax / IC50: individual replicate; for Emax: read-out: Tc CYP51 Max Effect; for IC50: read-out: Tc CYP51 pIC50 (converted); for fold more potent against the parasites than against Tc-CYP51: urea series
# Chain of Tc-CYP51 (Q7Z1V1 whole entry): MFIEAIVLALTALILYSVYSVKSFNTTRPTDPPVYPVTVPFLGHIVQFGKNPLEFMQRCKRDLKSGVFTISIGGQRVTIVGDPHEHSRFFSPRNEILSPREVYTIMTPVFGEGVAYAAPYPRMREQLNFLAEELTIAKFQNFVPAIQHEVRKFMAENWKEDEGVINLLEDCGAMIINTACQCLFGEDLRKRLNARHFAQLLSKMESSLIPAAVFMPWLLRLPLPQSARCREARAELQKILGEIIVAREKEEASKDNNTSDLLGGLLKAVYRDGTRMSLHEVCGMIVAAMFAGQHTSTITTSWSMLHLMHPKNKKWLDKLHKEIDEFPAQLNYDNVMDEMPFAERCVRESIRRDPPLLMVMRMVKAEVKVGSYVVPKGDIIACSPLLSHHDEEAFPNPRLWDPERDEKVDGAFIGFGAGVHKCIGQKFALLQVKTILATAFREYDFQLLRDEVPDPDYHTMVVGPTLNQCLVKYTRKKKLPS
# Method: T. cruzi sterol 14α-demethylase (CYP51) enzyme assay
# Potency against T. cruzi CYP51 was determined using a previously described fluorescence assay. Average potency for compound 1 was determined with three experimental replicates. Potencies in Fig.3 are from single experimental replicates. ^5
# [3] = Human liver microsomal intrinsic clearance; assay type: in vitro ADME; conditions: human liver microsomes
# [4] = Kinetic aqueous solubility by CAD; assay type: physicochemical; conditions: kinetic from dmso stock; kinetic, CAD; read-out: Aqueous solubility
# host Vero cell = assay: Vero host cell toxicity in the intracellular T. cruzi assay; assay type: cell-based; set-up: key to Max Effect (Vero): % inhibition; 0% = DMSO control, 100% = 16 μM nifurtimox control; conditions: for IC50: host Vero cell, read-out: Vero pIC50 (converted)
# Method: as §1, §2, §3
# [5] = ChromLogD pH7.4 (chromatographic hydrophobicity index), PFI, LLE; conditions: for PFI: ChromLogDpH7.4 + no. aromatic rings; for chromatographic logD: pH 7.4
# Excerpt: [23] Alongside PFI, LLE (ligand lipophilic efficiency, T. cruzi pIC50 - ChromLogDpH7.4) was also monitored to identify changes where the impact on potency was not driven by increasing lipophilicity.
# [6] = Chlorocebus sabaeus, Vero, individual replicate
Compound,Emax [1] [%],EC50 [1] [µM],IC50 [1] [µM],Hill slope (T. cruzi) [1],Max Effect (T. cruzi) [1],pEC50 (T. cruzi) [1],MLM CLi [2] [mL/min/g],Tc CYP51 Hill (Tc-CYP51),Emax (Tc-CYP51) [%],IC50 (Tc-CYP51) [µM],fold more potent against the parasites than against Tc-CYP51 (Tc-CYP51) [fold],HLM CLi [3] [mL/min/g],solubility [4] [µM],EC50 (host Vero cell; [6]) [µM],IC50 (host Vero cell; Chlorocebus sabaeus) [µM],Max Effect (Vero) (host Vero cell; individual replicate),PFI [5],chromatographic logD [5],other results
"COc1cccc(N2C(=O)C(NC(=O)Nc3ccc(C)cc3)C(=O)Nc3ccccc32)c1 (stereo not shown) [Compound 5, 1-(1-(3-methoxyphenyl)-2,4-dioxo-2,3,4,5-tetrahydro-1H-benzo[b][1,4]diazepin-3-yl)-3-(p-tolyl)urea]",87,2.51,2.51,2.8 and 3.2,88 and 91,5.7 and 5.5,1.6,0.7,68,3.98,10,<0.4,37,> 50.1,> 50.1,47 and 14 and 18 and 12,7.8,4.8,–
"COc1ccc(CN2C(=O)C(N)C(=O)N(C3CC3)c3ccccc32)cc1 (stereo not shown) [Compound 19, 3-amino-1-cyclopropyl-5-(4-methoxybenzyl)-1,5-dihydro-2H-benzo[b][1,4]diazepine-2,4(3H)-dione]",88,5.01,3.98,14.2 and 4.9 and 13.0 and 5.9,87,5.5 and 5.4,11.8,1.0,94,0.316,–,<0.4,> 442,> 50.1,> 50.1,15 and 17 and 14,5.2,3.2,"Emax (host Vero cell; Chlorocebus sabaeus, Vero, individual replicate, read-out: Max Effect (Vero)): 18%"
"COc1ccc(CN2C(=O)C(N)C(=O)N(c3ccccc3)c3ccccc32)cc1 (stereo not shown) [Compound 15, 3-amino-1-(4-methoxybenzyl)-5-phenyl-1,5-dihydro-2H-benzo[b][1,4]diazepine-2,4(3H)-dione]",87,1.58,1.58,1.8 and 4.1 and 3.2 and 10.2,92 and 88,5.7 and 5.9,16,1.2,94,0.2,–,1.3,> 232,> 50.1,> 50.1,9 and 4.52 and 11 and 20,7.1,4.1,–
"COc1ccc(CN2C(=O)C(N)C(=O)N(CC3CC(F)(F)C3)c3ccccc32)cc1 (stereo not shown) [Compound 20, 3-amino-1-((3,3-difluorocyclobutyl)methyl)-5-(4-methoxybenzyl)-1,5-dihydro-2H-benzo[b][1,4]diazepine-2,4(3H)-dione]",84,1.26,1.26,2.8 and 3.6 and 20.7,90 and 80 and 87,6.1 and 6.0 and 5.8,12,1.3,99,0.1,–,0.5,> 402,> 50.1,> 50.1,30 and 22 and 25 and 9,6.2,4.2,–
"COc1ccc(CN2C(=O)C(N)C(=O)N(c3ccc(OC)nc3)c3ccccc32)cc1 (stereo not shown) [Compound 18, 3-amino-1-(4-methoxybenzyl)-5-(6-methoxypyridin-3-yl)-1,5-dihydro-2H-benzo[b][1,4]diazepine-2,4(3H)-dione]",75,0.501,0.501,11.9 and 18.7 and 19.1 and 12.3,86 and 77 and 83,–,5.8,1.3,100,0.2,–,<0.4,> 332,> 50.1,> 50.1,39 and 19 and 56 and 14,6.8,3.8,Hill Slope (Vero) (host Vero cell; individual replicate): 3.7; pEC50 (Vero) (host Vero cell; individual replicate): 4.4
"COc1ccc(N2C(=O)C(NC(=O)Nc3ccc(C)cc3)C(=O)Nc3ccccc32)cc1 (stereo not shown) [Compound 4, 1-(1-(4-methoxyphenyl)-2,4-dioxo-2,3,4,5-tetrahydro-1H-benzo[b][1,4]diazepin-3-yl)-3-(p-tolyl)urea]",–,–,1,5.1 and 2.8 and 7.4 and 2.7 and 3.6 and 0.6 and 4.0 and 2.2,106 and 89 and 74 and 85 and 86 and 109 and 107,5.7 and 6.1 and 5.8 and 6.5 and 5.9 and 6.0,1.2,0.9,89,1.58,10,<0.4,56,> 50.1,> 50.1,15 and 26 and 13 and 12 and 17 and 16 and 20 and 4,7.8,4.8,–
"COc1ccc(CN2C(=O)C(N)C(=O)N(c3ccc(F)cc3)c3ccccc32)cc1 (stereo not shown) [Compound 17, 3-amino-1-(4-fluorophenyl)-5-(4-methoxybenzyl)-1,5-dihydro-2H-benzo[b][1,4]diazepine-2,4(3H)-dione]",88,0.501,0.631,24.4 and 25.4 and 12.5 and 3.5,87 and 83,6.2 and 6.0,10.6,1.8,95,0.2,–,<0.4,> 410,> 50.1,> 50.1,26 and 8 and 14 and 23,7.4,4.4,–
"COc1ccc(NC(=O)NC2C(=O)Nc3cccc(F)c3N(c3ccccc3)C2=O)cc1 (stereo not shown) [Compound 9, 1-(9-fluoro-2,4-dioxo-1-phenyl-2,3,4,5-tetrahydro-1H-benzo[b][1,4]diazepin-3-yl)-3-(4-methoxyphenyl)urea]",91,0.501,0.398,5.2 and 12.9 and 2.3 and 2.7,89 and 94,6.5 and 6.4,<0.5,1.3,90,10,10,<0.4,< 1,> 50.1,> 50.1,6 and 11 and -2.3 and 8,7.2,4.2,–
